Assay results as given in patent US11324832B2, “Tripartite modulators of endosomal G protein-coupled receptors” (Endosome Therapeutics, Inc., priority 2015, dated 2022).
Where a SMILES comes first, the peptide text is derived from it. [ ]: non-standard residue; d: D form. The star is where a group is joined. X1 = CC(C)CCC[C@@H](C)[C@H]1CC[C@H]2[C@@H]3CC[C@H]4C[C@@H](O*)CC[C@]4(C)[C@H]3CC[C@]12C; PEG4 = NCCOCCOCCOCCOCCC(=O)O; PEG3 = NCCOCCOCCOCCC(=O)O

How the values were obtained:
[1] = tested on: formalin-evoked nocifensive behavior in mice; assay: Formalin-evoked nocifensive behavior in mice; format: in vivo, mouse; details: for effect on formalin-evoked nocifensive behavior: i.t. 30 min before intraplantar formalin
Source text: (§1) Investigators were unaware of test agents.

[2] = tested on: CFA-induced mechanical hyperalgesia in mice; assay: CFA-induced mechanical hyperalgesia in mice; format: in vivo, mouse; details: for effect on CFA-induced sustained mechanical hyperalgesia: endocytic inhibitor i.t. 36 h after CFA
Source text: as §1

[3] = tested on: capsaicin-evoked mechanical hyperalgesia in mice; assay: Capsaicin-evoked mechanical hyperalgesia and edema in mice
[4] = molecular target: NK1R (Rattus norvegicus, UniProt P14600); assay: FRET biosensors of compartmentalized signaling (ERK, PKC, cAMP) in NK1R-expressing HEK293 cells; format: cell-based; set-up: Full length and truncated 6312 rat HA-NK1R have been described; expressed in transfected cells; host or cells: HEK293 (transient); details: for effect on SP activation of cytosolic ERK / effect on SP-induced plasma membrane cAMP / effect on plasma membrane PKC activity: endocytic inhibitor plus SP 1 nM; for effect on SP stimulation of cytosolic PKC / effect on SP stimulation of cytosolic cAMP / effect on SP stimulation of nuclear ERK: endocytic or signaling inhibitor plus SP 1 nM
Sequence of NK1R (Rattus norvegicus, UniProt P14600) (P14600 whole entry, the tested form may be a part): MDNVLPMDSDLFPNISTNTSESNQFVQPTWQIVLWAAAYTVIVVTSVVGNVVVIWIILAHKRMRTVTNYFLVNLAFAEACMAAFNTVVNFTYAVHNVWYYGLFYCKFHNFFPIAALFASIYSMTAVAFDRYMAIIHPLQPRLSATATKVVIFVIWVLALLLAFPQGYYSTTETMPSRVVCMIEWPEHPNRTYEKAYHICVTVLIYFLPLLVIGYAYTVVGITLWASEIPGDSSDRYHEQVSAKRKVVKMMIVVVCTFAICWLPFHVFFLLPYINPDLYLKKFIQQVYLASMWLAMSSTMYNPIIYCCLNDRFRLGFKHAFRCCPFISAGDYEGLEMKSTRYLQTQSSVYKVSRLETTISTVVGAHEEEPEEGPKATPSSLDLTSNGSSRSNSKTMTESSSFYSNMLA
Experimental: To study the link between NK1R trafficking and signaling, the NK1R and Förster Resonance Energy Transfer (FRET) biosensors targeted to detect activated ERK in the cytosol (CytoEKAR) or nucleus (NucEKAR, FIG. 2A), activated PKC at the plasma membrane (pmCKAR) or in the cytosol (CytoCKAR, FIG. 2C), and cAMP at the plasma membrane (pmEpac2) or in the cytosol (CytoEpac2, FIG. 2E) were expressed in HEK293 cells.
HEK293 cells were transfected with 55 ng/well rat NK1R with N-terminal HA. 11 epitope tag (HA-NK1R) or CLR plus RAMP1 and 40 ng/well FRET biosensors. FRET was assessed 48 h after transfection, following serum restriction (0.5% FBS overnight). For experiments using clathrin or dynamin siRNA, cells were transfected with 55 ng/well rat HA-NK1R, 40 ng/well FRET biosensor and 25 nM/well scrambled, clathrin or dynamin ON-TARGETplus SMARTpool siRNA (GE Dharmacon). FRET was assessed 72 h after transfection, following serum restriction (0.5% FBS overnight). Cells were equilibrated in HBSS at 37° C. and FRET was analyzed using a GE Healthcare INCell 2000 Analyzer. For GFP/RFP emission ratio analysis, cells were sequentially excited using a FITC filter (490/20) with emission measured using dsRed (605/52) and FITC (525/36) filters, and a polychroic optimized for the FITC/dsRed filter pair (Quad4). For CFP/YFP emission ratio analysis, cells were sequentially excited using a CFP filter (430/24) with emission measured using YFP (535/30) and CFP (470/24) filters, and a polychroic optimized for the CFP/YFP filter pair (Quad3). Cells were imaged every 1 min, allowing image capture of 14 wells per minute. Baseline emission ratio images were captured for 4 min. […] Cells were then stimulated with the positive control (200 nM phorbol 12,13-dibutyrate for ERK; 200 nM phorbol 12,13-dibutyrate with phosphatase inhibitor cocktail for PKC; 10 μM forskolin, 100 μM 3-isobutyl-1-methylxanthine, 100 nM PGE1 for cAMP) for 10 min to generate a maximal increase, and positive emission ratio images were captured for 4 min. Data were analyzed as described and expressed as emission ratios relative to baseline for each cell (F/F0). Cells with >10% change in F/F0 after stimulation with positive controls were selected for analysis.

[5] = tested on: NK1R; assay: Alexa568-SP trafficking in HEK-NK1R cells; format: cell-based, rat; details: 30 min at 37° C.
[6] = tested on: SP-IR and CGRP-IR release; assay: Neuropeptide release from mouse dorsal spinal cord; details: 30 μM; capsaicin 0.3 μM, 10 min
Experimental: Slices (0.4 mm) of mouse dorsal spinal cord (combined cervical, thoracic, lumbar-sacral segments) were superfused (0.4 ml·min^−1) with Krebs' solution (mM: NaCl 119, NaHCO3 25, KH2PO4 1.2, MgSO4 1.5, CaCl2 2.5, KCl 4.7, D-glucose 11 mM; […], 37° C.) containing 0.1% BSA, 1 μM phosphoramidon and 1 μM captopril. […] Tissues were then superfused with capsaicin (0.3 μM, 10 min) in the presence of inhibitors or controls. Superfusate (10 min collections, 4 ml) was collected before, during and after capsaicin stimulation, and analyzed for SP-IR and CGRP-IR (Bertin Pharma). […] Detection limits of the assays were 2 pg·ml^−1 for SP-IR and 5 pg·ml^−1 for CGRP-IR. Results are expressed as fmol·g^−1·20 min^−1.

[7] = tested on: ERK; assay: ERK phosphorylation in rat lamina I dorsal horn neurons in vivo; details: i.t. 30 min before intraplantar capsaicin
Experimental: Painful peripheral stimuli activate ERK in NKiR-expressing spinal neurons, which coincides with receptor endocytosis and contributes to hyperalgesia. Intraplantar capsaicin stimulated ERK phosphorylation in lamina I dorsal horn neurons (FIG. 5B). […] Thus, capsaicin stimulates clathrin- and dynamin-dependent NK1R endocytosis and ERK activation in spinal neurons in vivo.
After 10 min, rats were transcardially perfused with PBS and then 4% PFA. The spinal cord was removed, immersion fixed in PFA (2 h, 4° C.), and cryoprotected (30% sucrose, PBS, 24 h, 4° C.). The spinal cord (T12 to L4) was embedded in OCT and […] serial coronal sections were cut into 48-well plates containing PBS. Free-floating sections were blocked in PBS containing 10% normal horse serum (1 h, RT). […]
Tissues and cells were observed using a Leica SP8 confocal microscope using HCX PL APO 40× (NA 1.30) and HCX PL APO 63× (NA 1.40) oil objectives. […] NK1R endocytosis and pERK expression were quantified using ImageJ. To quantify NK1R internalization in lamina I neurons, the border of the cytoplasm of the neuronal soma was defined by NeuN fluorescence, and NK1R fluorescence within 5 pixels (0.5 μm) of the border was defined as plasma membrane-associated receptor. The ratio of plasma membrane to cytosolic NK1R-IR fluorescence was determined in >6 lamina I neurons per condition. […]

[8] = i.t. 36 h after intraplantar CFA
[9] = i.t. 3 h before intraplantar capsaicin
[10] = preincubated 30 min, then immediately challenged with SP
[11] = i.t. 30 min before intraplantar capsaicin

Row | SMILES | effect on Alexa568-SP redistribution to endosomes [5] | effect on basal or capsaicin-stimulated release of SP-IR and CGRP-IR [6] | effect on capsaicin-evoked activation of spinal ERK [7] | effect on formalin-evoked nocifensive behavior [1] | effect on CFA-induced sustained mechanical hyperalgesia [2] | effect on capsaicin-evoked edema (left paw thickness) [3, 11] | effect on capsaicin-evoked mechanical hyperalgesia (von Frey, left paw) [3, 11] | effect on SP activation of cytosolic ERK [4] | effect on SP-induced plasma membrane cAMP [4] | effect on plasma membrane PKC activity [4] | effect on SP stimulation of cytosolic PKC [4] | effect on SP stimulation of cytosolic cAMP [4] | effect on SP stimulation of nuclear ERK [4] | also measured
1 | CC(=O)N[C@@H](CC(=O)O[C@H]1CC[C@@]2(C)[C@@H](CC[C@@H]3[C@@H]2CC[C@]2(C)[C@@H]([C@H](C)CCCC(C)C)CC[C@@H]32)C1)C(=O)NCCOCCOCCOCCOCCC(=O)NCCOCCOCCOCCC(=O)NCCOCCOCCOCCOCCC(=O)N[C@H](CCCNC(=N)N)C(=O)N1CCC[C@H]1C(=O)N[C@@H](CCCCN)C(=O)N1CCC[C@H]1C(=O)N[C@@H](CCC(N)=O)C(=O)N[C@@H](CCC(N)=O)C(=O)N[C@H](Cc1c[nH]c2ccccc12)C(=O)N[C@@H](Cc1ccccc1)C(=O)N[C@H](Cc1c[nH]c2ccccc12)C(=O)N[C@@H](CC(C)C)C(=O)N[C@@H](CC(C)C)C(N)=O [Compound 1] (Ac-D(X1)[PEG4][PEG3][PEG4][dR]PKPQQ[dW]F[dW]LL-NH2) | – | – | – | – | – | – | – | – | – | – | – | – | – | effect on formalin-evoked nocifensive behavior (both phases) ([1]; i.t. 3 h before intraplantar formalin): markedly inhibited both phases of nocifensive behavior; duration of analgesia [2, 8]: > 6 h; time after which analgesic [2, 8]: 4 h; delay of analgesia ([3]; i.t. 30 min after capsaicin): 3 h; duration of analgesia ([3]; i.t. 30 min after capsaicin): > 6 h; duration of inhibition of capsaicin-evoked hyperalgesia [3, 9]: > 120 min; effect on capsaicin-evoked mechanical hyperalgesia (von Frey, left paw) [3, 9]: markedly inhibited capsaicin-evoked hyperalgesia; antagonism of SP activation of cytosolic ERK, pre-incubation [4, 10]: blocked activation of nuclear and cytosolic ERK; antagonism of SP activation of nuclear ERK, pre-incubation [4, 10]: blocked activation of nuclear and cytosolic ERK; antagonism of SP activation of nuclear ERK, pulse incubation ([4]; pulse incubated 30 min, washed, SP 4 h later): alone inhibited nuclear ERK
2 | O=C1NC(=NS(=O)(=O)c2cccc3ccccc23)S/C1=C\c1ccc(Br)cc1 [PS2] | caused retention of Alexa568-SP in vesicles close to the plasma membrane | did not affect | prevented capsaicin-evoked activation of spinal ERK | inhibited both phases of nocifensive behavior | partially reversed | unaffected | inhibited hyperalgesia | did not suppress SP activation of cytosolic ERK or plasma membrane cAMP, but caused both responses to become sustained | did not suppress SP activation of cytosolic ERK or plasma membrane cAMP, but caused both responses to become sustained | amplified plasma membrane PKC activity | abolished | abolished | abolished | effect on paw withdrawal responses of the uninjected right hind paw ([3]; intrathecal treatment): did not affect
3 | O=C(N/N=C/c1cc(O)c(O)cc1O)c1cc2ccccc2cc1O [Dy4] | caused retention of Alexa568-SP in vesicles close to the plasma membrane | did not affect | prevented capsaicin-evoked activation of spinal ERK | inhibited both phases of nocifensive behavior | partially reversed | unaffected | inhibited hyperalgesia | did not suppress SP activation of cytosolic ERK or plasma membrane cAMP, but caused both responses to become sustained | did not suppress SP activation of cytosolic ERK or plasma membrane cAMP, but caused both responses to become sustained | amplified plasma membrane PKC activity | abolished | abolished | abolished | –
